Reference: patent US11773127B2, “Compounds and methods for treating bacterial infections” (Washington University, priority 2017, dated 2023)
Read-outs that look alike come from different tables or passages of the source.

Biological target: T1, FmlHLD (Escherichia coli, UniProt P77588)
T1 construct: 6xHis (C); made in house; host or cells: E. coli C600, periplasm, pTRC99a
Experiment: biochemical
Format: binding, E. coli
Conditions: for % Inhibition at [μM] [100]: compound at 100 μM; for PI100 (percent inhibition): galactoside at 100 μM
Protocol: Thereafter, wells were incubated with 200 μl blocking buffer (PBS+1% BSA) for 2 hours at 23° C., followed by incubation with 100 μl biotinylated FmlHLD diluted in blocking buffer to 20 μg/ml in the presence or absence of the tested compounds for 1 hr at 23° C. After washing 3× with PBS+0.05% TWEEN-20, 100 μl Streptavidin-HRP conjugate (BD Biosciences; 1:2000 dilution in blocking buffer) was added to each well for 1 hr at 23° C. After a final round of washing, plates were developed with 100 μl Tetramethylbenzidine (TMB, BD Biosciences) substrate, quenched within 1-2 min with 50 μl […], and absorbance measured at 450 nm.
Select top hit compounds and few low-scoring analogs from the virtual screening, as well as synthetic galactosides, were tested in the ELISA-based competition assay for their ability to inhibit binding of FmlHLD to ds-BSM. The ELISA assay was performed using the protocol described in Example 18. […] All compounds were tested at 100 μM; a subset was tested at 10 μM; and the strongest subset was additionally tested at 1 μM. […] Percent inhibition (PI) values are reported as the mean with standard error of the mean for galactosides tested at 100 μM (PI100), 10 μM (PI10), and 1 μM (PI1) in the ELISA-based competition assay. […] The “thio” designation indicates a sulfur linkage between the sugar and the aglycone group, the “phospho” designation indicates a phosphate group attached the C6-hydroxyl group on the sugar, and the “uro” designation indicates galacturonide as the sugar.
The ELISA assay was performed using the protocol described in Example 18. All compounds were tested at 1 μM and a subset was additionally tested at 100 nM. Average percent inhibition (PI) values are reported for compounds tested at 1 μM (PI1) and 100 nM (PI0.1).
Briefly, 1 μg bovine submaxillary mucin (Sigma) in 100 uL PBS were incubated with Immulon 4HBX 96-well plates overnight prior to treatment with 1 mU Arthrobacter ureafaciens sialidase for 1 hour at 37° C. to remove terminal sialic acid sugars. Wells were then blocked with 200 μL PBS+1% BSA for 2 hours at room temperature. Biotinylated FmlH^LD was diluted to 20 μg/mL in blocking buffer and incubated in the presence or absence of compounds serially diluted 2× down eight rows for 1 hour at room temperature. Wells were washed three times with PBS 0.05% TWEEN-20 then incubated with 100 μL of streptavidin-HRP conjugate (BD Biosciences; 1:2,000 dilution in blocking buffer) for one hour. After three additional PBS+0.05% TWEEN washes, plates were developed with 100 μL of tetramethylbenzidine (BD Biosciences) substrate and quenched with 50 μL of 1 M H2SO4. Total bound portion concentration was measured by the absorbance at 450 nm. IC50s were determined using the Graphpad Prism software.
The compounds synthesized herein were tested in the ELISA-based competition assay for their ability to inhibit binding of FmlHLD to ds-BSM. The ELISA assay was performed using the protocol described in Example 18. Compounds were tested at […], 1 μM, and 100 nM. as indicated on the table. […] ND means the corresponding value was not determined for this summary (but may be available elsewhere in the Examples).

[1] = read-out: % Inhibition at [μM] [100], compound at 100 μM, inhibition of FmlHLD binding to ds-BSM
[2] = inhibition of FmlHLD binding to ds-BSM
[3] = IC50, inhibition of FmlHLD binding to ds-BSM
[4] = mean with standard error of the mean, 100 µM
[5] = read-out: PI100 (percent inhibition), galactoside at 100 μM, mean with standard error of the mean
[6] = read-out: % Inhibition at [μM] [1], compound at 1 μM, inhibition of FmlHLD binding to ds-BSM
[7] = read-out: PI(1) (average percent inhibition), compound at 1 μM, Table 4
[8] = IC50 (μM), Table 5, Gal and GalNAc inhibition of FmlH
[9] = read-out: % Inhibition at [μM] [0.1], compound at 0.1 μM (100 nM), inhibition of FmlHLD binding to ds-BSM
[10] = read-out: PI (0.1) (average percent inhibition), compound at 100 nM, Table 4
[11] = read-out: PI10 (percent inhibition), galactoside at 10 μM, mean with standard error of the mean

T1 sequence (P77588 25-182): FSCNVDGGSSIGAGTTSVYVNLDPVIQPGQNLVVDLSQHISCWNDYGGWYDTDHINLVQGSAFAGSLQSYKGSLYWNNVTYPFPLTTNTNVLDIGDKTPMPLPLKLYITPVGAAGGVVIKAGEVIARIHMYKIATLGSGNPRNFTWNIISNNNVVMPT

`OC[C@H]1O[C@H](Oc2cccc(-c3ccccc3)c2)[C@H](O)[C@@H](O)[C@H]1O` [Compound 114af1] showed an inhibition at 100 µM [1] of 45.6%.
In the case of `O=[N+]([O-])c1ccc(O[C@@H]2O[C@H](CO[C@@H]3O[C@H](CO)[C@H](O)[C@H](O)[C@H]3O)[C@H](O)[C@H](O)[C@H]2O)cc1` [Gal-b1-6-PNPG, reference compound], the “% Inhibition at [μM] [100]” value [2] is reported as 19.41%.
In the case of `Cc1cccc(O[C@@H]2O[C@H](CO)[C@H](O)[C@H](O)[C@H]2NC(=O)C(F)(F)F)c1-c1cccc(NS(C)(=O)=O)c1` [AM2129], the IC50 [3] is reported as 0.105 µM.
With `OC[C@H]1O[C@@H](Oc2cccc3ccccc23)[C@H](O)[C@@H](O)[C@H]1O` [Compound 115af2] the inhibition at 100 µM [1] was 45.9%.
For `OC[C@H]1O[C@@H](Oc2cccc3ccncc23)[C@H](O)[C@@H](O)[C@H]1O` [Compound 21β, 8-isoquinolinyl β-D-galactopyranoside], the “PI100 (percent inhibition)” value [4] was 15.2 ± 7.1% and the inhibition at 100 µM [5] was 15%.
In the case of `Cc1ccccc1O[C@H]1O[C@H](CO)[C@H](O)[C@H](O)[C@H]1O` [Compound 2α, 2-Methylphenyl α/β-D-Galactopyranoside], the inhibition at 100 µM [5] is reported as 30 ± 5.4%.
With `CC(=O)N[C@H]1[C@H](Oc2cccc3cccnc23)O[C@H](CO)[C@H](O)[C@@H]1O` [AM1176] the inhibition at 1 µM [6] was 21% and the inhibition at 1 µM [7] was 21%.
With `CC(=O)Nc1cccc(-c2ccccc2O[C@@H]2O[C@H](CO)[C@H](O)[C@H](O)[C@H]2NC(C)=O)c1` [AM2062, N-(2′-(((2S,3R,4R,5R,6R)-3-acetamido-4,5-dihydroxy-6-(hydroxymethyl)tetrahydro-2H-pyran-2-yl)oxy)-[1,1′-biphenyl]-3-yl)acetamide] the IC50 [8] was 0.31 µM, the IC50 [3] was 0.623 µM and the inhibition at 0.1 µM [9] was 14.8%. It also gave an inhibition at 1 µM [6] of 67.9%, an inhibition at 0.1 µM [10] of 14.8% and an inhibition at 1 µM [7] of 67.9%.
`CC(=O)N[C@H]1[C@H](Oc2cccc([N+](=O)[O-])c2-c2cccc(NS(C)(=O)=O)c2)O[C@H](CO)[C@H](O)[C@@H]1O` [Compound 3078, N-((2S,3R,4R,5R,6R)-4,5-dihydroxy-6-(hydroxymethyl)-2-((3′-(methylsulfonamido)-6-nitro-[1,1′-biphenyl]-2-yl)oxy)tetrahydro-2H-pyran-3-yl)acetamide] gave an IC50 (IC50 (μM), Table 6, sulfonamides 3078-3090) of 0.11 µM.
Work on `CC(=O)N[C@H]1[C@H](Oc2cccc(C(=O)O)c2-c2cccc(NS(C)(=O)=O)c2)O[C@H](CO)[C@H](O)[C@@H]1O` [AM2148] yielded an IC50 [3] of 0.13 µM.
Work on `Cc1cccc(O[C@@H]2O[C@H](CO)[C@H](O)[C@H](O)[C@H]2NS(C)(=O)=O)c1-c1cccc(NS(C)(=O)=O)c1` [AM2186] yielded an IC50 [3] of 3.5 µM.
`O=C(O)c1cccc(-c2ccccc2O[C@H]2O[C@H](CO)[C@H](O)[C@H](O)[C@H]2O)c1` [Compound 29α, 2′-(α/β-D-galactopyranosyloxy)-[1,1′-Biphenyl]-3-carboxylic acid] gave an inhibition at 100 µM [5] of 26.2 ± 5.9%.
`COC(=O)Nc1cccc(-c2ccccc2O[C@@H]2O[C@H](CO)[C@H](O)[C@H](O)[C@H]2NC(C)=O)c1` [AM2065, methyl (2′-(((2S,3R,4R,5R,6R)-3-acetamido-4,5-dihydroxy-6-(hydroxymethyl)tetrahydro-2H-pyran-2-yl)oxy)-[1,1′-biphenyl]-3-yl)carbamate] was tested, and the “inhibitory potency against FmlH, in words” value (ELISA-based competition assay) was “equal or slightly reduced potency”, the IC50 [8] was 0.63 µM and the IC50 [3] was 1.05 µM. The inhibition at 0.1 µM [9] was 0%, the inhibition at 1 µM [6] was 45.3% and the inhibition at 0.1 µM [10] was 0%. The inhibition at 1 µM [7] was 45.3%.
In the case of `CC(=O)N[C@H]1[C@H](Oc2cccc3ccc(C)nc23)O[C@H](CO)[C@H](O)[C@@H]1O` [AM1179, N-((2S,3R,4R,5R,6R)-4,5-dihydroxy-6-(hydroxymethyl)-2-((2-methylquinolin-8-yl)oxy)tetrahydro-2H-pyran-3-yl)acetamide], the inhibition at 1 µM [6] is reported as 25.2% and the inhibition at 1 µM [7] is reported as 25.2%.
`CC(=O)N[C@H]1[C@@H](Oc2ccc([N+](=O)[O-])cc2)O[C@H](CO)[C@H](O)[C@@H]1O` [PNP-aGalNAc, reference compound] was tested, and the “% Inhibition at [μM] [10]” value (compound at 10 μM, inhibition of FmlHLD binding to ds-BSM) was 6.29% and the “% Inhibition at [μM] [100]” value [2] was 82.04%.
`CC(=O)N[C@H]1[C@H](Oc2ccc3cccnc3c2)O[C@H](CO)[C@H](O)[C@@H]1O` [AM1180, N-((2S,3R,4R,5R,6R)-4,5-dihydroxy-6-(hydroxymethyl)-2-(quinolin-7-yloxy)tetrahydro-2H-pyran-3-yl)acetamide] was tested, and the inhibition at 1 µM [6] was 15.4% and the inhibition at 1 µM [7] was 15.4%.
With `OC[C@H]1O[C@@H](Oc2ccccc2)[C@H](O)[C@@H](O)[C@H]1O` [Compound 1β, phenyl β-galactoside] the “PI100 (percent inhibition)” value [4] was 76.9 ± 0.4%, the inhibition at 10 µM [11] was 15.5 ± 4.2% and the inhibition at 100 µM [5] was 77%.
In the case of `CC(=O)N[C@H]1[C@H](Oc2ccccc2-c2cccc(NS(=O)(=O)C(F)(F)F)c2)O[C@H](CO)[C@H](O)[C@@H]1O` [AM2112], the IC50 [3] is reported as 2.43 µM.
`OC[C@H]1O[C@@H](Oc2c[nH]c3ccccc23)[C@H](O)[C@@H](O)[C@H]1O` [3-indoxyl Gal, reference compound] showed an inhibition at 100 µM [1] of 21.7%.
With `Cc1c(C)c2ccc(O[C@@H]3O[C@H](CO)[C@H](O)[C@H](O)[C@H]3O)cc2oc1=O` [Compound 14β] the “PI100 (percent inhibition)” value [4] was 89.2 ± 0.4%, the inhibition at 1 µM (read-out: PI1 (percent inhibition), galactoside at 1 μM, mean with standard error of the mean) was 10.2 ± 4.3% and the inhibition at 10 µM [11] was 19.8 ± 3.8%. It also gave an inhibition at 100 µM [5] of 89%.
For `CNC(=O)c1cccc(-c2ccccc2O[C@@H]2O[C@H](CO)[C@H](O)[C@H](O)[C@H]2O)c1` [AM2042, N-methyl-2′-(((2S,3R,4S,5R,6R)-3,4,5-trihydroxy-6-(hydroxymethyl)tetrahydro-2H-pyran-2-yl)oxy)-[1,1′-biphenyl]-3-carboxamide], the inhibition at 0.1 µM [9] was 0%, the inhibition at 1 µM [6] was 16.6% and the inhibition at 0.1 µM [10] was 0%. For the same compound, the inhibition at 1 µM [7] was 16.6%.
For `CC(=O)N[C@H]1[C@@H](Oc2ccc([N+](=O)[O-])cc2)O[C@H](CO)[C@H](O)[C@@H]1O[C@@H]1O[C@H](CO)[C@H](O)[C@H](O)[C@H]1O` [Compound 33, p-nitrophenyl Gal-β1-3-GalNAc, reference compound], the “PI100 (percent inhibition)” value (mean with standard error of the mean) was 15.3 ± 3.1%.
With `OC[C@H]1O[C@@H](Oc2cccc(-c3ccccc3)c2)[C@H](O)[C@@H](O)[C@H]1O` [Compound 31β, [1,1′-biphenyl]-3-yl α/β-D-galactopyranoside] the “PI100 (percent inhibition)” value [4] was 56.9 ± 6.2%, the inhibition at 10 µM [11] was 7.8 ± 5.5% and the inhibition at 100 µM [5] was 57%.
`CCOC(=O)c1ccc(OC)c(-c2ccccc2O[C@@H]2O[C@H](CO)[C@H](O)[C@H](O)[C@H]2NC(C)=O)c1` [AM2053, ethyl 2′-(((2S,3R,4R,5R,6R)-3-acetamido-4,5-dihydroxy-6-(hydroxymethyl)tetrahydro-2H-pyran-2-yl)oxy)-6-methoxy-[1,1′-biphenyl]-3-carboxylate] was tested, and the inhibition at 0.1 µM [9] was 0%, the inhibition at 1 µM [6] was 13.7% and the inhibition at 0.1 µM [10] was 0%. The inhibition at 1 µM [7] was 13.7%.
`CC(=O)N[C@H]1[C@H](Oc2ccccc2[N+](=O)[O-])O[C@H](CO)[C@H](O)[C@@H]1O` [ONPG-NAc] showed an inhibition at 1 µM [6] of 22.4%, an inhibition at 10 µM (read-out: % Inhibition at [μM] [10], compound at 10 μM, inhibition of FmlHLD binding to ds-BSM) of 87.2% and an inhibition at 100 µM [1] of 99.4%.
